In ChEMBL document CHEMBL1121977, “alpha 2 adrenoceptors: classification, localization, mechanisms, and targets for drugs” (J Med Chem, 1982):

Biological target: T1, Adrenergic receptor alpha-2 (Rattus norvegicus, UniProt P22086+P19328+P22909)
T1 sequence (P22086 whole entry): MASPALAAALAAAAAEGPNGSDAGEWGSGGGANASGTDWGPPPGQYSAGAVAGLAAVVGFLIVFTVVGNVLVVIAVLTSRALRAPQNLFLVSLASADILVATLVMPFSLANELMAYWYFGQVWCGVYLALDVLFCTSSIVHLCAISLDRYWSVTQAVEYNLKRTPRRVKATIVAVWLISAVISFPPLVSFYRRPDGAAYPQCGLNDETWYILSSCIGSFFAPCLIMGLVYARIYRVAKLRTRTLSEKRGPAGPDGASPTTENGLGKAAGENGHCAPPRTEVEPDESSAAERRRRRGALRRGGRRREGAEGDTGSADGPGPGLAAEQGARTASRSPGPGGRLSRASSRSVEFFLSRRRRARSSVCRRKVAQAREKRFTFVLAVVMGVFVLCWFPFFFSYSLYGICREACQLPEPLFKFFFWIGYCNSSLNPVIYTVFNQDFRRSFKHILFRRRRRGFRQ
T1 sequence (P19328 whole entry): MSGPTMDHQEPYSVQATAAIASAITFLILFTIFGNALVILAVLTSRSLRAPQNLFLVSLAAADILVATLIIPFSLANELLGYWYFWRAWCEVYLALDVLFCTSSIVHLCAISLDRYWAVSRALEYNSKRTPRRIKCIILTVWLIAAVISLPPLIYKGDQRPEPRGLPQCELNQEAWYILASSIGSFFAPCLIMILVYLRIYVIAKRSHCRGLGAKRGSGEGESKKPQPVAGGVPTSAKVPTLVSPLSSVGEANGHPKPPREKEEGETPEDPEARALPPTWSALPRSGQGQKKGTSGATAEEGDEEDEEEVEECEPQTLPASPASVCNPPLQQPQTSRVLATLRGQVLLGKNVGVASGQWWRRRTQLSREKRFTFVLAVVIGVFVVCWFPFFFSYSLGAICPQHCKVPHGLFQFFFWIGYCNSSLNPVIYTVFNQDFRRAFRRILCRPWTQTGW
T1 sequence (P22909 whole entry): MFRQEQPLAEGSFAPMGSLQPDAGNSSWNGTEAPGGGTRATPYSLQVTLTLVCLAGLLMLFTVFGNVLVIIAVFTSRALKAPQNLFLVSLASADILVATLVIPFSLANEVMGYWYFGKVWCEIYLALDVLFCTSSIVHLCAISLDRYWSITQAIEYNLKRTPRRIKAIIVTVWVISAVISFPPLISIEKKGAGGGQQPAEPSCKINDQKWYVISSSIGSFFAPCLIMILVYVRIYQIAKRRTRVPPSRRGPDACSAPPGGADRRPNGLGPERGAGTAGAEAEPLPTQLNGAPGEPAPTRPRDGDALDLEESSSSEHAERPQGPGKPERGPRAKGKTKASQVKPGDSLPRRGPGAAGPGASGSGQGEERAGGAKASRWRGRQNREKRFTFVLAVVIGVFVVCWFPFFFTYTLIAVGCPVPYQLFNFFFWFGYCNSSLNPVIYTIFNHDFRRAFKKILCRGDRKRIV
Test: Displacement of [3H]clonidine from Alpha-2 adrenergic receptor of rat brain membranes
Type: cell membranes, Membrane

In the case of `COc1cccc(OC)c1OCCNCC1COc2ccccc2O1` (centres undefined), the Ki is reported as 200 nM.

`C[C@H](N)[C@H](O)c1ccc(O)c(O)c1` [LEVONORDEFRIN] was tested, and the Ki was 7.7 nM.

In the case of `c1ccc(CC2=NCCN2)cc1` [TOLAZOLINE], the Ki is reported as 180 nM.

For `c1cc2c(c(NC3=NCCN3)c1)CCCC2` [TRAMAZOLINE], the Ki was 4.2 nM.
